# Literature values as cited in paper PMC5525545 (Nature, 2017).
# Columns and labels:
# [1] = patients with post-herpetic neuralgia
# [2] = test system: AngII-induced neuronal excitability
# [3] = several neuropathic pain models in rodents
# AT2R = details: activation of AT2R
compound,measurement,setting,value
COc1ccc2c(c1OCc1ccccc1)C[C@@H](C(=O)O)N(C(=O)C(c1ccccc1)c1ccccc1)C2 [EMA401],efficacy in phase II clinical trials,[1],demonstrated efficacy
Cc1cc(Cn2cnc3c2C[C@@H](C(=O)O)N(C(=O)C(c2ccccc2)c2ccccc2)C3)ccc1N(C)C [PD123319],effect on AngII-induced neuronal excitability,[2],blocks AngII-induced neuronal excitability
same,oral bioavailability,[3],exhibits oral bioavailability
CCCCOC(=O)NS(=O)(=O)c1sc(CC(C)C)cc1-c1ccc(Cn2ccnc2)cc1 [Compound 21],beneficial in vivo effects,AT2R,"inducing pressure natriuresis, lowering blood pressure, conferring acute vaso-relaxation, and exhibiting organ protective effects"
